The source made the active and inactive calls. No cut-off for these calls is given here.
Legend:
[1] = molecular target: RAC-gamma serine/threonine-protein kinase (Homo sapiens, UniProt Q9Y243); experiment: NanoBRET (AKT3)
[2] = NanoBRET (AKT1); conditions: Homo sapiens
[3] = molecular target: Muscarinic acetylcholine receptor M1 (Homo sapiens, UniProt P11229); experiment: GPCRScan assay: inhibition of M1; parameters: radioligand conc. used [nm] 0.3 – 1.2, parental cells stable CHO
[4] = molecular target: Alpha-1A adrenergic receptor (Homo sapiens) (UniProt P35348); conditions: Compound concentration 10.0 uM
[5] = molecular target: Beta-3 adrenergic receptor (Homo sapiens) (UniProt P13945); conditions: Compound concentration 10.0 uM
[6] = molecular target: Mu-type opioid receptor (Homo sapiens) (UniProt P35372); conditions: Compound concentration 10.0 uM
[7] = molecular target: D(4) dopamine receptor (Homo sapiens) (UniProt P21917); conditions: Compound concentration 10.0 uM
[8] = molecular target: Sodium-dependent noradrenaline transporter (Homo sapiens) (UniProt P23975); conditions: Compound concentration 10.0 uM
[9] = Mechanistic cell assay: Inhibition of phosphorylation (T308); conditions: Homo sapiens
[10] = molecular target: 5-hydroxytryptamine receptor 3A (Homo sapiens) (UniProt P46098); conditions: Compound concentration 10.0 uM
[11] = molecular target: 5-hydroxytryptamine receptor 5A (Homo sapiens) (UniProt P47898); conditions: Compound concentration 10.0 uM
[12] = molecular target: 5-hydroxytryptamine receptor 2B (Homo sapiens) (UniProt P41595); conditions: Compound concentration 10.0 uM
[13] = molecular target: Muscarinic acetylcholine receptor M1 (Homo sapiens) (UniProt P11229); conditions: Compound concentration 10.0 uM
[14] = molecular target: Delta-type opioid receptor (Homo sapiens) (UniProt P41143); conditions: Compound concentration 10.0 uM
[15] = molecular target: Sodium-dependent dopamine transporter (Homo sapiens) (UniProt Q01959); conditions: Compound concentration 10.0 uM
[16] = molecular target: Alpha-2B adrenergic receptor (Homo sapiens) (UniProt P18089); conditions: Compound concentration 10.0 uM
[17] = molecular target: Histamine H2 receptor (Homo sapiens) (UniProt P25021); conditions: Compound concentration 10.0 uM
[18] = Mechanistic cell assay: Reduction of the basal levels of AKT phosphorylation in KPL-4 cells at T308; format: cell-based; conditions: Homo sapiens, KPL4
[19] = molecular target: Muscarinic acetylcholine receptor M4 (Homo sapiens) (UniProt P08173); conditions: Compound concentration 10.0 uM
[20] = NanoBRET (AKT2); conditions: Homo sapiens
[21] = molecular target: Alpha-2A adrenergic receptor (Homo sapiens) (UniProt P08913); conditions: Compound concentration 10.0 uM
[22] = molecular target: Sodium-dependent serotonin transporter (Homo sapiens) (UniProt P31645); conditions: Compound concentration 10.0 uM
[23] = Mechanistic cell assay: Inhibition of phosphorylation (AKT1-S473); conditions: Homo sapiens
[24] = molecular target: 5-hydroxytryptamine receptor 2A (Homo sapiens) (UniProt P28223); conditions: Compound concentration 10.0 uM
[25] = molecular target: Beta-1 adrenergic receptor (Homo sapiens) (UniProt P08588); conditions: Compound concentration 10.0 uM
[26] = molecular target: Sigma intracellular receptor 2 (Homo sapiens) (UniProt Q5BJF2); conditions: Compound concentration 10.0 uM
[27] = molecular target: 5-hydroxytryptamine receptor 1D (Homo sapiens) (UniProt P28221); conditions: Compound concentration 10.0 uM
[28] = molecular target: D(3) dopamine receptor (Homo sapiens) (UniProt P35462); conditions: Compound concentration 10.0 uM
[29] = molecular target: D(1A) dopamine receptor (Homo sapiens) (UniProt P21728); conditions: Compound concentration 10.0 uM
[30] = molecular target: D(1B) dopamine receptor (Homo sapiens) (UniProt P21918); conditions: Compound concentration 10.0 uM
[31] = molecular target: Beta-2 adrenergic receptor (Homo sapiens) (UniProt P07550); conditions: Compound concentration 10.0 uM
[32] = Mechanistic cell assay: Blocking of the activation of the downstream signaling molecule 4EBP1 by phosphorylation at mTOR substrate T70; parameters: species or system Homo sapiens
[33] = Mechanistic cell assay: inhibition of PRAS40 phosphorylation at T246; conditions: Homo sapiens
[34] = molecular target: Sigma non-opioid intracellular receptor 1 (Homo sapiens) (UniProt Q99720); conditions: Compound concentration 10.0 uM
[35] = molecular target: Muscarinic acetylcholine receptor M2 (Homo sapiens) (UniProt P08172); conditions: Compound concentration 10.0 uM
[36] = molecular target: 5-hydroxytryptamine receptor 7 (Homo sapiens) (UniProt P34969); conditions: Compound concentration 10.0 uM
[37] = molecular target: Alpha-2C adrenergic receptor (Homo sapiens) (UniProt P18825); conditions: Compound concentration 10.0 uM
[38] = molecular target: Alpha-1B adrenergic receptor (Homo sapiens) (UniProt P35368); conditions: Compound concentration 10.0 uM
[39] = molecular target: 5-hydroxytryptamine receptor 1A (Homo sapiens) (UniProt P08908); conditions: Compound concentration 10.0 uM
[40] = molecular target: GABA-A receptor; anion channel (Rattus norvegicus) (UniProt O09028+P15431+P18506+P18508+P19969+P20236+P23574+P23576+P28471+P28473+P30191+P62813+P63079+P63138+Q91ZM7+Q9ES14); conditions: Compound concentration 10.0 uM
[41] = molecular target: Muscarinic acetylcholine receptor M5 (Homo sapiens) (UniProt P08912); conditions: Compound concentration 10.0 uM
[42] = molecular target: 5-hydroxytryptamine receptor 1B (Homo sapiens) (UniProt P28222); conditions: Compound concentration 10.0 uM
[43] = Mechanistic cell assay: Inhibition of phosphorylation (4EBPI-T70); conditions: Homo sapiens
[44] = molecular target: Kappa-type opioid receptor (Homo sapiens) (UniProt P41145); conditions: Compound concentration 10.0 uM
[45] = organism: Rattus norvegicus; conditions: Compound concentration 10.0 uM
[46] = molecular target: Alpha-1D adrenergic receptor (Homo sapiens) (UniProt P25100); conditions: Compound concentration 10.0 uM
[47] = molecular target: 5-hydroxytryptamine receptor 2C (Homo sapiens) (UniProt P28335); conditions: Compound concentration 10.0 uM
[48] = molecular target: Histamine H3 receptor (Homo sapiens) (UniProt Q9Y5N1); conditions: Compound concentration 10.0 uM
[49] = Mechanistic cell assay: Inhibition of activation by phosphorylation (4EBPI-T70); conditions: Homo sapiens
[50] = molecular target: Histamine H1 receptor (Homo sapiens) (UniProt P35367); conditions: Compound concentration 10.0 uM
[51] = molecular target: 5-hydroxytryptamine receptor 6 (Homo sapiens) (UniProt P50406); conditions: Compound concentration 10.0 uM
[52] = molecular target: D(2) dopamine receptor (Homo sapiens) (UniProt P14416); conditions: Compound concentration 10.0 uM
[53] = molecular target: Muscarinic acetylcholine receptor M3 (Homo sapiens) (UniProt P20309); conditions: Compound concentration 10.0 uM
[54] = Mechanistic cell assay: Inhibition of activation by phosphorylation (AKT1-S473); conditions: Homo sapiens
[55] = Mechanistic cell assay: Reduction of the basal levels of AKT phosphorylation in KPL-4 cells at S473; format: cell-based; conditions: Homo sapiens, KPL4

Muscarinic acetylcholine receptor M1, sequence (P11229 whole entry): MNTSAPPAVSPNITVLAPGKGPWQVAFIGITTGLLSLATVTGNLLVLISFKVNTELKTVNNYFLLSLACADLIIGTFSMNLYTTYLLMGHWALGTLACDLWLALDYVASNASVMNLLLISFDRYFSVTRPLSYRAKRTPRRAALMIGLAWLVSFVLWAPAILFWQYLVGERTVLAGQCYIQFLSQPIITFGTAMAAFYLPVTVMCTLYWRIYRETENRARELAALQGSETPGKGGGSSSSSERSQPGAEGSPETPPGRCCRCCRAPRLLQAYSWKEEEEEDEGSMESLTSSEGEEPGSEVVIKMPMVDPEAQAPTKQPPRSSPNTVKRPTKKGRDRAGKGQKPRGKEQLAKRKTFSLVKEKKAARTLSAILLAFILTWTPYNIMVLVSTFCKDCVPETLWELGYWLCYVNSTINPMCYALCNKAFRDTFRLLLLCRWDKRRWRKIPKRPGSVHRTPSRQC
Alpha-1B adrenergic receptor (Homo sapiens), sequence (P35368 whole entry): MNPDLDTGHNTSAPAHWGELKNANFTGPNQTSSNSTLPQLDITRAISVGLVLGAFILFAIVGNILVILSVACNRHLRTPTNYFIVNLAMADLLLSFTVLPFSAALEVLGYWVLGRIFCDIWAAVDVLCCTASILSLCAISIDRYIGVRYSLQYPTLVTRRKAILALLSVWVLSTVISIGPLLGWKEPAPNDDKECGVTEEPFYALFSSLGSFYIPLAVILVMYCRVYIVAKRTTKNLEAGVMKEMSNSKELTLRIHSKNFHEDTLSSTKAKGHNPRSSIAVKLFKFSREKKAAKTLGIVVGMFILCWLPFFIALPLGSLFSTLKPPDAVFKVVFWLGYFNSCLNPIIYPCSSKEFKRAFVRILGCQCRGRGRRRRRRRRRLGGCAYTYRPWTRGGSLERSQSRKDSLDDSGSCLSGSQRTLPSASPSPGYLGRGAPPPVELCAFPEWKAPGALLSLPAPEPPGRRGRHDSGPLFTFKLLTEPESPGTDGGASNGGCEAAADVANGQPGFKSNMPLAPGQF
5-hydroxytryptamine receptor 5A (Homo sapiens), sequence (P47898 whole entry): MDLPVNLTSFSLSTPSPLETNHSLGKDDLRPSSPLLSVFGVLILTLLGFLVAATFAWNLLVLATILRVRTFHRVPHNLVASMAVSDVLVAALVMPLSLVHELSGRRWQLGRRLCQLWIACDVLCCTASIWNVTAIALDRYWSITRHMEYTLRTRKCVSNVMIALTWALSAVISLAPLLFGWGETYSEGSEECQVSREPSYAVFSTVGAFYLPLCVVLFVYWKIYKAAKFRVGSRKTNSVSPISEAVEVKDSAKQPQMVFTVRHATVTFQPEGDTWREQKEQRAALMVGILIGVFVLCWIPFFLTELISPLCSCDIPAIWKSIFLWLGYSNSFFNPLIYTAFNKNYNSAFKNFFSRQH
Alpha-2C adrenergic receptor (Homo sapiens), sequence (P18825 whole entry): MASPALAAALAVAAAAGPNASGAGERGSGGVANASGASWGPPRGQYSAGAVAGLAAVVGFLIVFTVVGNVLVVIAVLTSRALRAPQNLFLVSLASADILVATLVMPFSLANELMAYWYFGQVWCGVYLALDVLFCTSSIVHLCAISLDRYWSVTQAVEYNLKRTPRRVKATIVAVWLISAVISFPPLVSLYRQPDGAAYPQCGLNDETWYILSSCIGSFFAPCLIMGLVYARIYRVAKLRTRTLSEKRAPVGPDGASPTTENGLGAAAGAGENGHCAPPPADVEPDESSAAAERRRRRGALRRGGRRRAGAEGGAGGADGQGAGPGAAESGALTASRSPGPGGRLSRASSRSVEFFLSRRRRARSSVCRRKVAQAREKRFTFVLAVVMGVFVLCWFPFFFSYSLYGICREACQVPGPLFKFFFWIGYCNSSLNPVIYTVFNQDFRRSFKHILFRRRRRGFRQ
D(3) dopamine receptor (Homo sapiens), sequence (P35462 whole entry): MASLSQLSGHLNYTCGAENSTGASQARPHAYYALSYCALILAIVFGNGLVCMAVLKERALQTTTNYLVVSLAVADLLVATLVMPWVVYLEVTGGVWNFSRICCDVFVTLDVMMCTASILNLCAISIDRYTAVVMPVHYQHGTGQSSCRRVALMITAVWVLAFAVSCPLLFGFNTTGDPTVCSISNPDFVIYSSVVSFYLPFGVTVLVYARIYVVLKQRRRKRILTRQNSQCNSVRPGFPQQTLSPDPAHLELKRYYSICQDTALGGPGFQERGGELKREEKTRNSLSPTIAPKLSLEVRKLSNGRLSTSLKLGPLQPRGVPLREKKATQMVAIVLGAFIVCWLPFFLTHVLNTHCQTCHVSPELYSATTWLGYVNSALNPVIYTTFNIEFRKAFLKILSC
Sodium-dependent noradrenaline transporter (Homo sapiens), sequence (P23975 whole entry): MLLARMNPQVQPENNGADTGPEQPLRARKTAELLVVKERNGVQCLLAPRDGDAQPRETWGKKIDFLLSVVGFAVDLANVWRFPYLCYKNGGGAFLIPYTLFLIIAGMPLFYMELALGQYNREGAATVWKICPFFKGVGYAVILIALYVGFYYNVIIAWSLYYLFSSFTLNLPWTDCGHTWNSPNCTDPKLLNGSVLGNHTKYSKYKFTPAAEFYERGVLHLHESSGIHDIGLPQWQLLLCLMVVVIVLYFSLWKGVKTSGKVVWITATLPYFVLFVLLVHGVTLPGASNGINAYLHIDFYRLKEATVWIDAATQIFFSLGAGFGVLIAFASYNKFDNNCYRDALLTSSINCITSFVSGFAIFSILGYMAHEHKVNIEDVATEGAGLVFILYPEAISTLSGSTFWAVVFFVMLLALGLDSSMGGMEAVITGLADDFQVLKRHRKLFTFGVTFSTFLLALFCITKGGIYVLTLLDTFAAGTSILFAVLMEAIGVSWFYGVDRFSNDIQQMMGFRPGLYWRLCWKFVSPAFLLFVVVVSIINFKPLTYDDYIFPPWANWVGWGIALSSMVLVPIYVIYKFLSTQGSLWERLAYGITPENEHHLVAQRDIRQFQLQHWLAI
Muscarinic acetylcholine receptor M2 (Homo sapiens), sequence (P08172 whole entry): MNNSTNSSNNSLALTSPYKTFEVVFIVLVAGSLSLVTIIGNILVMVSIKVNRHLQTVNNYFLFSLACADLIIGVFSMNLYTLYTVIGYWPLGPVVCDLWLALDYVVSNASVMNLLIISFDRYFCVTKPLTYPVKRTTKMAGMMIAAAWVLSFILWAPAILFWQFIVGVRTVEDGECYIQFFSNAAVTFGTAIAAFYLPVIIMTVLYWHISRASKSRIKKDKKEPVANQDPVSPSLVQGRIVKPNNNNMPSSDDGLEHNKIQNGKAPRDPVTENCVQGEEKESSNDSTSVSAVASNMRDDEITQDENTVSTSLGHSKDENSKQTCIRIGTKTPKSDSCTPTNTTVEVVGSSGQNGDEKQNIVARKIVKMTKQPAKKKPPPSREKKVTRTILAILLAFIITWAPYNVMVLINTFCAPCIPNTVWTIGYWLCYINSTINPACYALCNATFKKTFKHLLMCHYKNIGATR
5-hydroxytryptamine receptor 6 (Homo sapiens), sequence (P50406 whole entry): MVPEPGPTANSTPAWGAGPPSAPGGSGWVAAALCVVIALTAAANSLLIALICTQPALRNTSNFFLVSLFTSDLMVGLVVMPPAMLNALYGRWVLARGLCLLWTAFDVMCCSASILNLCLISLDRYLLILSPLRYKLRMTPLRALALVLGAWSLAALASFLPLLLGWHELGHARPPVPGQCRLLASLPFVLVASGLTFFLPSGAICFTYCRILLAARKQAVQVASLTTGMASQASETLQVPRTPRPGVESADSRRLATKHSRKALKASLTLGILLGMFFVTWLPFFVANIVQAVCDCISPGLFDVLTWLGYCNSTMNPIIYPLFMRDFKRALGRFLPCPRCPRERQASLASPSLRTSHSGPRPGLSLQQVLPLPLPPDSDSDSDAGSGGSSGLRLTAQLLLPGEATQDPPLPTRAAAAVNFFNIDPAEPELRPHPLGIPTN
Histamine H2 receptor (Homo sapiens), sequence (P25021 whole entry): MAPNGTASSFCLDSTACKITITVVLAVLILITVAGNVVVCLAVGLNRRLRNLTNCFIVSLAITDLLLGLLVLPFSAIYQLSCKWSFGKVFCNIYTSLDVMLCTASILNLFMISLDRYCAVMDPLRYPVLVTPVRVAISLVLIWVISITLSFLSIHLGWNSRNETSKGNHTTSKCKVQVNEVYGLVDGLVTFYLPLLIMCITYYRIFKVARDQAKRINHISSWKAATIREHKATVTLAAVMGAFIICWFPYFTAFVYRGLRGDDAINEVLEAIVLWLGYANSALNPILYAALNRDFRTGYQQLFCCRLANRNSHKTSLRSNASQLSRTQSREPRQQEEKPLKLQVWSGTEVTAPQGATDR
Alpha-1D adrenergic receptor (Homo sapiens), sequence (P25100 whole entry): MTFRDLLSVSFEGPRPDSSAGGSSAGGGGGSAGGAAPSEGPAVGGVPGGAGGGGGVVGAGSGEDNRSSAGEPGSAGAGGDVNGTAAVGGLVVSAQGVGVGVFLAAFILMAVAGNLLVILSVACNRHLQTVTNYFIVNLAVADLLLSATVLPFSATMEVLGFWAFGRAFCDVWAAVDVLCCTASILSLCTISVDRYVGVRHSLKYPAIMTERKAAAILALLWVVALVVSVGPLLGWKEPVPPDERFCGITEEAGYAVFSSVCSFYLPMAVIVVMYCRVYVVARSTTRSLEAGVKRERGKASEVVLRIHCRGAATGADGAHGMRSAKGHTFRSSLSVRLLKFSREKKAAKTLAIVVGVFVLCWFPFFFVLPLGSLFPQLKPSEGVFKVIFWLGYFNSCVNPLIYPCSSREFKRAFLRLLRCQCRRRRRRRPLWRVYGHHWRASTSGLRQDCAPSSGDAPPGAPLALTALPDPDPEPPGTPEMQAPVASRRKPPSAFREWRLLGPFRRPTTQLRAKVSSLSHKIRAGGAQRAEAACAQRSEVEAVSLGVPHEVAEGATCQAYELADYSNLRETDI
Muscarinic acetylcholine receptor M1 (Homo sapiens), sequence (P11229 whole entry): as the sequence (P11229 whole entry) above
Sigma non-opioid intracellular receptor 1 (Homo sapiens), sequence (Q99720 whole entry): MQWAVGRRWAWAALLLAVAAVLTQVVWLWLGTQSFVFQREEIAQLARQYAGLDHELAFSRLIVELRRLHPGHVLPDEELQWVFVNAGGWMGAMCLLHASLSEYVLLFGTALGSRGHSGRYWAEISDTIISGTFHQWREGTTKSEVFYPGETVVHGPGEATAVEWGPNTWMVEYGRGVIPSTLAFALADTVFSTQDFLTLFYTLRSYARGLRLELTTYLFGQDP

Question: Which EC50 [1] does the source give for `NC1(c2ccc(-c3nc4c(O)ccnn4c3-c3ccccc3)cc2)CCC1` here?
Answer: > 50 µM (not active)

Question: And the EC50 [2]?
Answer: 1.3 µM (not active)

Question: What about the IC50 [2] of the same molecule?
Answer: 6 µM (not active)

Question: Which Ki ([3]; read-out: Ki) does the source give for `NC(=O)c1ccc2nc(-c3ccc(C4(N)CCC4)cc3)c(-c3ccccc3)n2n1` [BAY-1125976] here?
Answer: 1.45 µM

Question: What about the Ki ([3]; read-out: pKi (converted)) of the same molecule?
Answer: 1.35 µM

Question: And the inhibition [4]?
Answer: 39.4%

Question: What about the inhibition [5] of the same molecule?
Answer: 11.4%

Question: And the inhibition [6]?
Answer: 31.1%

Question: And the inhibition [7]?
Answer: 7.35%

Question: And the inhibition [8]?
Answer: 47.5%

Question: And the IC50 [9]?
Answer: 0.0056 µM (active)

Question: What about the inhibition [10] of the same molecule?
Answer: 10.8%

Question: What about the inhibition [11] of the same molecule?
Answer: 9.78%

Question: What about the inhibition [12] of the same molecule?
Answer: 13.4%

Question: What about the inhibition [13] of the same molecule?
Answer: 71.9%

Question: And the inhibition [14]?
Answer: 26.9%

Question: What about the inhibition [15] of the same molecule?
Answer: 40%

Question: And the inhibition [16]?
Answer: 28.7%

Question: What about the inhibition [17] of the same molecule?
Answer: 0.95%

Question: And the IC50 [18]?
Answer: 0.0009 µM (active)

Question: And the inhibition [19]?
Answer: 12.4%

Question: What about the EC50 [20] of the same molecule?
Answer: 0.03 µM (active)

Question: What about the IC50 [20] of the same molecule?
Answer: 0.0107 µM (active)

Question: What about the inhibition [21] of the same molecule?
Answer: 6.89%

Question: What about the inhibition [22] of the same molecule?
Answer: 14.8%

Question: And the IC50 [23]?
Answer: 0.0008 µM (active)

Question: And the inhibition [24]?
Answer: 8.08%

Question: And the inhibition [25]?
Answer: 16.8%

Question: And the inhibition [26]?
Answer: 39.9%

Question: And the inhibition [27]?
Answer: 12.2%

Question: And the inhibition [28]?
Answer: 22.6%

Question: What about the inhibition [29] of the same molecule?
Answer: -3.8%

Question: And the inhibition [30]?
Answer: 23.4%

Question: What about the inhibition [31] of the same molecule?
Answer: 21.5%

Question: What about the IC50 [32] of the same molecule?
Answer: 0.035 µM (active)

Question: What about the IC50 [33] of the same molecule?
Answer: 0.141 µM (active)

Question: And the inhibition [34]?
Answer: -1.31%

Question: What about the inhibition [35] of the same molecule?
Answer: 11.2%

Question: And the inhibition [36]?
Answer: 12.9%

Question: What about the inhibition [37] of the same molecule?
Answer: 38.9%

Question: What about the inhibition [38] of the same molecule?
Answer: -8.97%

Question: And the inhibition [39]?
Answer: 32.7%

Question: And the inhibition [40]?
Answer: 38%

Question: What about the inhibition [41] of the same molecule?
Answer: 1.83%

Question: And the inhibition [42]?
Answer: 10.2%

Question: And the IC50 [43]?
Answer: 0.035 µM (active)

Question: And the inhibition [44]?
Answer: 25.4%

Question: What about the inhibition [45] of the same molecule?
Answer: 40.5%

Question: What about the inhibition [46] of the same molecule?
Answer: 37.8%

Question: And the inhibition [47]?
Answer: 25.7%

Question: What about the inhibition [48] of the same molecule?
Answer: 14.6%

Question: What about the IC50 [49] of the same molecule?
Answer: 0.1 µM (active)

Question: And the inhibition [50]?
Answer: 30.8%

Question: And the inhibition [51]?
Answer: 17.8%

Question: And the inhibition [52]?
Answer: -1.55%

Question: What about the inhibition [53] of the same molecule?
Answer: 20.1%

Question: And the IC50 [54]?
Answer: 0.035 µM (active)

Question: And the IC50 [55]?
Answer: 0.0011 µM (active)

Question: What about the EC50 [2] of the same molecule?
Answer: 0.015 µM (active)

Question: And the IC50 [2]?
Answer: 0.00284 µM (active)
